The text below walks through data of patent US10137079B2, “Transdermal composition for treating pain” (priority 2014, dated 2018).

For series [1], the system named is skin. To be noted: FDA Safety Announcement Sep. 13, 2012; cited from earlier work.
The subject of series [2] is skin. To be noted: in vivo. An excerpt: Menthol can optionally be added to overcome the burning sensation caused by the capsaicin. […] 13, 2012 has reported that skin can burn with menthol concentrations above 3% (http://www.fda.gov/Drugs/DrugSafety/ucm318858.htm). Thus, in one embodiment, the concentration of menthol in the ethosome compositions is less than about 3% by weight. In another embodiment, the concentration of menthol in the ethosome compositions is about 2% by weight.

Structures are written as SMILES.

For `CC1CCC(C(C)C)C(O)C1` (centres unmarked) [Menthol], the “menthol concentrations at which skin can burn” value in the series on skin [1] is reported as “above 3%”. Further, in the series on skin [2], the burning sensation result is recorded as “can cause a burning sensation on its own”.
